These results are taken from US4443436A, “C-20-Modified macrolide derivatives of the macrolide antibiotics tylosin, desmycosin, macrocin, and lactenocin” (Eli Lilly and Company, priority 1982, dated 1984).

The subject of assay [1] is Haemophilus influenzae R252. Nature of the assay: MIC, standard agar-dilution assay, Haemophilus influenzae R252. The format is cell-based.
A further assay concerns Mycoplasma gallisepticum. Put plainly: MIC, broth-dilution microtiter test, Mycoplasma gallisepticum. The format is cell-based. The text has this: (§1) The MIC's in Table X were obtained using conventional broth-dilution microtiter tests.
Assay [2] concerns Pasteurella multocida 17E. Put plainly: MIC, broth-dilution microtiter test, Pasteurella multocida 17E. The format is cell-based.
From the text: as §1

Assay [3] relates to Staphylococcus epidermidis EPI1. Put plainly: MIC, standard agar-dilution assay, Staphylococcus epidermidis EPI1. Format: cell-based.
In assay [4] the test system is Pasteurella hemolytica 22C. Nature of the assay: MIC, broth-dilution microtiter test, Pasteurella hemolytica 22C. To be noted: Pasteurella hemolytica 22C, broth-dilution microtiter. The format is cell-based.
From the text: as §1

The test system of assay [5] is Streptococcus pyogenes C203. Put plainly: MIC, standard agar-dilution assay, Streptococcus pyogenes C203. The format is cell-based.
Assay [6] has as its system Haemophilus influenzae Holt. Nature of the assay: MIC, standard agar-dilution assay, Haemophilus influenzae Holt. The format is cell-based.
Assay [7] deals with Streptococcus pneumoniae Park I. Put plainly: microbe, parasite or virus in culture. Format: cell-based.
The test system of another assay is Staphylococcus aureus. Nature of the assay: MIC, broth-dilution microtiter test, Staphylococcus aureus. The format is cell-based.
From the text: as §1

In assay [8] the test system is Streptococcus Group D X66. Nature of the assay: MIC, standard agar-dilution assay, Streptococcus Group D X66. Format: cell-based. To be noted: Streptococcus Group D X66, agar dilution. On the technique in general: Agar dilution tests growth on a series of plates holding different concentrations.
The subject of assay [9] is Pasteurella multocida 60A. Nature of the assay: MIC, broth-dilution microtiter test, Pasteurella multocida 60A. To be noted: Pasteurella multocida 60A, avian isolate, broth-dilution microtiter. Format: cell-based.
From the text: as §1

Assay [10] relates to Staphylococcus aureus X400. Put plainly: MIC, standard agar-dilution assay, Staphylococcus aureus X400. Format: cell-based.
The subject of assay [11] is Staphylococcus epidermidis EPI2. Put plainly: MIC, standard agar-dilution assay, Staphylococcus epidermidis EPI2. The format is cell-based.
The next assay has as its system Streptococcus Group 9960. Put plainly: MIC, standard agar-dilution assay, Streptococcus Group 9960. Format: cell-based. Particulars: Streptococcus Group 9960, agar dilution.
The subject of a further assay is Streptococcus bovis 80. Put plainly: MIC, broth-dilution microtiter test, Streptococcus bovis 80. Format: cell-based.
From the text: as §1

The test system of the next assay is Mycoplasma hyorhinis. Nature of the assay: MIC, broth-dilution microtiter test, Mycoplasma hyorhinis. The format is cell-based. Particulars: Mycoplasma hyorhinis, broth-dilution microtiter.
From the text: as §1

Assay [12] deals with Staphylococcus aureus S13E. Nature of the assay: MIC, standard agar-dilution assay, Staphylococcus aureus S13E. Format: cell-based.
For assay [13], the system named is Staphylococcus aureus V41. Put plainly: MIC, standard agar-dilution assay, Staphylococcus aureus V41. The format is cell-based.
Assay [14] relates to Staphylococcus aureus X1.1. Nature of the assay: MIC, standard agar-dilution assay, Staphylococcus aureus X1.1. Format: cell-based.
The next assay concerns Mycoplasma synoviae. Put plainly: MIC, broth-dilution microtiter test, Mycoplasma synoviae. Particulars: Mycoplasmopsis synoviae. Format: cell-based.
From the text: as §1

Assay [15] relates to Streptococcus pyogenes C203. Nature of the assay: In vivo protection of mice experimentally infected with S. pyogenes C203. Particulars: mice, doses given 1 and 4 hours post-infection. As for the experimental part: The C-20 modified derivatives of this invention have shown in vivo antimicrobial activity against experimentally-induced infections in laboratory animals. When two doses of test compound were administered to mice experimentally infected with S. pyogenes C203, the activity observed was measured as an ED50 value [effective dose in mg/kg to protect 50% of the test animals: see Warren Wick, et al., J. Bacteriol. 81, 233-235 (1961)].

Setting [16] is: Haemophilus influenzae R252, ampicillin-resistant strain, agar dilution.
[17] abbreviates: Staphylococcus epidermidis EPI1, agar dilution.
Where [18] appears, read: Streptococcus pyogenes C203, agar dilution.
The mark [19] stands for this setting: Haemophilus influenzae Holt, ampicillin-sensitive strain, agar dilution.
The mark [20] stands for this setting: Streptococcus pneumoniae Park I, agar dilution.
Where [21] appears, read: Staphylococcus aureus X400, methicillin-resistant strain, agar dilution.
Setting [22] is: Staphylococcus epidermidis EPI2, agar dilution.
[23] abbreviates: Staphylococcus aureus S13E, agar dilution.
Setting [24] is: Staphylococcus aureus V41, penicillin-resistant strain, agar dilution.
Where [25] appears, read: Staphylococcus aureus X1.1, agar dilution.

In brackets after ≈: the same amount, converted by molar mass. Where two headings read alike, the source gives them in different places.

As for `CCC1OC(=O)CC(O)C(C)C(OC2OC(C)C(OC3CC(C)(O)C(O)C(C)O3)C(N(C)C)C2O)C(CCOC(=O)c2nn(CC)c3cc4c(cc3c2=O)OCO4)CC(C)C(=O)C=CC(C)=CC1COC1OC(C)C(O)C(OC)C1OC` (stereo not drawn) [Compound 10, 20-DH-20-O-Cinoxacinyltylosin], the MIC is 128 µg/mL (≈ 110 µM) in assay [1] (Haemophilus influenzae, R252); 0.78 µg/mL (≈ 0.671 µM) against Mycoplasma gallisepticum (Mycoplasmoides gallisepticum); more than 50 µg/mL in [2] (Pasteurella multocida, 17E); 2 µg/mL (≈ 1.72 µM) in [3] (Staphylococcus epidermidis, EPI1); more than 50 µg/mL in [4] (read-out: MIC); 1 µg/mL (≈ 0.86 µM) in assay [5] (Streptococcus pyogenes, C203). Further, the MIC was 128 µg/mL (≈ 110 µM) in assay [6] (Haemophilus influenzae); 0.5 µg/mL (≈ 0.43 µM) in assay [7] (Streptococcus pneumoniae); 12.5 µg/mL (≈ 10.8 µM) against Staphylococcus aureus; 8 µg/mL (≈ 6.88 µM) in assay [8] (read-out: MIC); more than 50 µg/mL in assay [9] (read-out: MIC); 8 µg/mL (≈ 6.88 µM) in assay [10] (Staphylococcus aureus, X400). Further, the MIC in assay [11] (Staphylococcus epidermidis, EPI2) is 8 µg/mL (≈ 6.88 µM); in the assay on Streptococcus Group 9960 (GROUP9960, read-out: MIC), 8 µg/mL (≈ 6.88 µM); in the assay with Streptococcus bovis 80 (Streptococcus equinus, 80), 3.12 µg/mL (≈ 2.68 µM); with Mycoplasma hyorhinis (read-out: MIC), 25 µg/mL (≈ 21.5 µM); in assay [12] (Staphylococcus aureus, S13E), 4 µg/mL (≈ 3.44 µM); in assay [13] (Staphylococcus aureus, V41), 2 µg/mL (≈ 1.72 µM). Moreover, the MIC in assay [14] (Staphylococcus aureus, X1.1) turned out to be 1 µg/mL (≈ 0.86 µM).

As to `CCC1OC(=O)CC(O)C(C)C(OC2OC(C)C(OC3CC(C)(O)C(O)C(C)O3)C(N(C)C)C2O)C(CCOS(=O)(=O)c2ccc(C)cc2)CC(C)C(=O)C=CC(C)=CC1COC1OC(C)C(O)C(O)C1OC` (stereo not drawn) [Compound 56, 20-DH-20-O-(p-Toluenesulfonyl)macrocin], the MIC in the assay with Mycoplasma gallisepticum (Mycoplasmoides gallisepticum) was 1.56 µg/mL (≈ 1.47 µM); in assay [2] (Pasteurella multocida 17E, bovine isolate, broth-dilution microtiter, read-out: MIC), more than 50 µg/mL; against Mycoplasma synoviae, 12.5 µg/mL (≈ 11.8 µM); in assay [4] (read-out: MIC), more than 50 µg/mL; in the assay on Staphylococcus aureus, 3.12 µg/mL (≈ 2.95 µM); in [9] (read-out: MIC) it was more than 50 µg/mL. Besides, the MIC in the assay with Streptococcus bovis 80 (Streptococcus equinus, Streptococcus bovis 80, broth-dilution microtiter, read-out: MIC) is 6.25 µg/mL (≈ 5.91 µM); in the assay on Mycoplasma hyorhinis (read-out: MIC), more than 50 µg/mL.

For the compound `CCC1OC(=O)CC(O)C(C)C(OC2OC(C)C(O)C(N(C)C)C2O)C(CCNC(=O)COc2ccccc2)CC(C)C(=O)C=CC(C)=CC1COC1OC(C)C(O)C(OC)C1OC` (stereo not drawn) [Compound 51c, 20-DH-DO-20-(N-phenoxyacetyl)aminodesmycosin], the MIC in assay [1] (setting [16]) worked out at 8 µg/mL (≈ 8.82 µM); in assay [3] (setting [17]), 0.25 µg/mL (≈ 0.276 µM); in assay [5] (setting [18]) it was 0.25 µg/mL (≈ 0.276 µM); in assay [6] (setting [19]), 8 µg/mL (≈ 8.82 µM); in assay [7] (setting [20]) it was 0.25 µg/mL (≈ 0.276 µM); in [8], 1 µg/mL (≈ 1.1 µM). For the same compound, the MIC in assay [10] (setting [21]) came to 0.5 µg/mL (≈ 0.551 µM); in [11] (setting [22]) it was 0.12 µg/mL (≈ 0.132 µM); against Streptococcus Group 9960, 1 µg/mL (≈ 1.1 µM); in [12] (setting [23]), 0.25 µg/mL (≈ 0.276 µM); in [13] (setting [24]) it was 0.25 µg/mL (≈ 0.276 µM); in [14] (setting [25]), 0.25 µg/mL (≈ 0.276 µM).

For `CCC(=O)OC1C(OC2C(CCCl)CC(C)C(=O)C=CC(C)=CC(COC3OC(C)C(O)C(OC)C3OC)C(CC)OC(=O)CC(O)C2C)OC(C)C(OC2CC(C)(O)C(O)C(C)O2)C1N(C)C` (stereo not drawn) [Compound 63, 20-DH-DO-20-Chloro-2'-O-propionyltylosin], the MIC entry is “-- (Not active at 128 mcg/ml, the highest level tested)” in assay [1] (setting [16]); 1.56 µg/mL (≈ 1.57 µM) against Mycoplasma gallisepticum (Mycoplasma gallisepticum, broth-dilution microtiter); “-- (Not active at 50 mcg/ml, the highest level tested)” in assay [2] (Pasteurella multocida 17E, bovine isolate, broth-dilution microtiter); 1 µg/mL (≈ 1.01 µM) in assay [3] (setting [17]); “-- (Not active at 50 mcg/ml, the highest level tested)” in assay [4]; 0.5 µg/mL (≈ 0.504 µM) in assay [5] (setting [18]). Also, the MIC result was “-- (Not active at 128 mcg/ml, the highest level tested)” in assay [6] (setting [19]); 16 µg/mL (≈ 16.1 µM) in [7] (setting [20]); 6.25 µg/mL (≈ 6.3 µM) against Staphylococcus aureus (broth-dilution microtiter); “-- (Not active at 128 mcg/ml, the highest level tested)” in assay [8]; “-- (Not active at 50 mcg/ml, the highest level tested)” in assay [9]; 2 µg/mL (≈ 2.01 µM) in assay [10] (setting [21]). For the same compound, the MIC was 1 µg/mL (≈ 1.01 µM) in assay [11] (setting [22]); “-- (Not active at 128 mcg/ml, the highest level tested)” in the assay on Streptococcus Group 9960; 25 µg/mL (≈ 25.2 µM) against Streptococcus bovis 80 (Streptococcus bovis 80, broth-dilution microtiter); 50 µg/mL (≈ 50.4 µM) in the assay on Mycoplasma hyorhinis; 1 µg/mL (≈ 1.01 µM) in assay [12] (setting [23]); 1 µg/mL (≈ 1.01 µM) in assay [13] (setting [24]). This compound also yielded an MIC in assay [14] (setting [25]) of 1 µg/mL (≈ 1.01 µM). Further, in [15] (oral), the “ED50, Oral” value is 22 mg/kg × 2. Besides, the “ED50, Subcutaneous” value in assay [15] (subcutaneous) is given as more than 6.3 mg/kg × 2.
